These are literature values, as cited in patent publication US11667615B2, “Certain (2S)-N-[(1S)-1-cyano-2-phenylethyl]-1,4-oxazepane-2-carboxamides as dipeptidyl peptidase 1 inhibitors” (AstraZeneca AB, priority 2014, dated 2023).

Each structure is given as a SMILES string.

For this data set the following is noted: QWBA studies; concomitant ultra-structural changes by electron microscopy.

In the case of `CC(c1ccc(Cl)c(Cl)c1)N1N=C(N)CC1=O` (stereo not shown) [muzolimine], the “retention in the aorta” value is “retained selectively in the aorta”.
